Experiments:
Format in all cases: functional
Conditions in all cases: read-out: IZ
Pseudomonas aeruginosa = assay: Antibacterial activity against Pseudomonas aeruginosa at 100 ug/ml by cup-plate method
Staphylococcus aureus = assay: Antibacterial activity against Staphylococcus aureus at 100 ug/ml by cup-plate method
Escherichia coli = assay: Antibacterial activity against Escherichia coli at 100 ug/ml by cup-plate method
Bacillus subtilis = assay: Antibacterial activity against Bacillus subtilis at 100 ug/ml by cup plate method
Candida albicans = assay: Antifungal activity against Candida albicans at 100 ug/ml by cup-plate method

| SMILES | zone of inhibition at 100 µg/mL (Pseudomonas aeruginosa) | zone of inhibition at 100 µg/mL (Staphylococcus aureus) | zone of inhibition at 100 µg/mL (Escherichia coli) | zone of inhibition at 100 µg/mL (Bacillus subtilis) | zone of inhibition at 100 µg/mL (Candida albicans) |
| --- | --- | --- | --- | --- | --- |
| Cc1ccc(NS(=O)(=O)c2ccc(NC(=O)c3cn(CCO)c4c(cc(O)c5ncccc54)c3=O)cc2)cc1 | 0 mm | 5 mm | 5 mm | 6 mm | 0 mm |
| O=C(NC(=S)Nc1cccc([N+](=O)[O-])c1)c1cn(CCO)c2c(cc(O)c3ncccc32)c1=O | 10 mm | 7 mm | 9 mm | 7 mm | 0 mm |
| Cc1ccccc1NC(=S)NC(=O)c1cn(CCO)c2c(cc(O)c3ncccc32)c1=O | 0 mm | 5 mm | 6 mm | 7 mm | 0 mm |
| COc1ccccc1NC(=S)NC(=O)c1cn(CCO)c2c(cc(Cl)c3ncccc32)c1=O | 3 mm | 0 mm | 5 mm | 6 mm | 0 mm |
| Cc1ccc(NC(=S)NC(=O)c2cn(CCO)c3c(cc(Cl)c4ncccc43)c2=O)cc1 | 0 mm | 6 mm | 6 mm | 6 mm | 0 mm |
| O=C(NC(=S)Nc1ccc(O)cc1)c1cn(CCO)c2c(cc(O)c3ncccc32)c1=O | 6 mm | 6 mm | 6 mm | 7 mm | 0 mm |
| COc1ccccc1NC(=S)NC(=O)c1cn(CCO)c2c(cc(O)c3ncccc32)c1=O | 4 mm | 4 mm | 0 mm | 0 mm | 0 mm |
| Cc1ccc(NS(=O)(=O)c2ccc(NC(=O)c3cn(CCO)c4c(cc(Cl)c5ncccc54)c3=O)cc2)cc1 | 7 mm | 5 mm | 5 mm | 6 mm | 1 mm |
| O=C(Nc1ccc(S(=O)(=O)Nc2ccc(Cl)cc2)cc1)c1cn(CCO)c2c(cc(O)c3ncccc32)c1=O | 4 mm | 0 mm | 4 mm | 6 mm | 0 mm |
| Cc1ccccc1NS(=O)(=O)c1ccc(NC(=O)c2cn(CCO)c3c(cc(O)c4ncccc43)c2=O)cc1 | 4 mm | 4 mm | 0 mm | 6 mm | 0 mm |
| O=C(Nc1ccc([N+](=O)[O-])cc1)c1cn(CCO)c2c(cc(O)c3ncccc32)c1=O | 6 mm | 8 mm | 6 mm | 7 mm | 0 mm |
| Cc1cccc(NC(=O)c2cn(CCO)c3c(cc(O)c4ncccc43)c2=O)c1 | 6 mm | 5 mm | 0 mm | 6 mm | 1 mm |
| O=C(Nc1ccc(S(=O)(=O)Nc2ccc(Cl)cc2)cc1)c1cn(CCO)c2c(cc(Cl)c3ncccc32)c1=O | 0 mm | 6 mm | 8 mm | 7 mm | 1 mm |
| Cc1cccc(NS(=O)(=O)c2ccc(NC(=O)c3cn(CCO)c4c(cc(Cl)c5ncccc54)c3=O)cc2)c1 | 4 mm | 0 mm | 0 mm | 6 mm | 0 mm |
| Cc1ccccc1NC(=O)c1cn(CCO)c2c(cc(Cl)c3ncccc32)c1=O | 4 mm | 0 mm | 7 mm | 5 mm | 0 mm |
| Cc1ccc(NC(=O)c2cn(CCO)c3c(cc(Cl)c4ncccc43)c2=O)cc1 | 5 mm | 5 mm | 4 mm | 7 mm | 0 mm |
| Cc1ccc(C)c(NC(=O)c2cn(CCO)c3c(cc(Cl)c4ncccc43)c2=O)c1 | 8 mm | 8 mm | 10 mm | 9 mm | 0 mm |
| O=C(Nc1ccccc1)c1cn(CCO)c2c(cc(O)c3ncccc32)c1=O | 8 mm | 7 mm | 8 mm | 6 mm | 1 mm |
| O=C(Nc1cccc(Cl)c1)c1cn(CCO)c2c(cc(O)c3ncccc32)c1=O | 4 mm | 0 mm | 4 mm | 6 mm | 0 mm |
| COc1ccccc1NC(=O)c1cn(CCO)c2c(cc(O)c3ncccc32)c1=O | 0 mm | 6 mm | 6 mm | 8 mm | 1 mm |

Source: ChEMBL document CHEMBL3044825, “Synthesis and in vitro microbial activities of amides of pyridoquinolone” (2011)
